Columns and labels:
CCR5-tropic HIV = experiment: Randomized controlled study of atazanavir/ritonavir QD with maraviroc or Truvada in treatment-naïve patients, 24 weeks; type: in vivo, human; details: with atazanavir 300 mg QD and ritonavir 100 mg QD
Excerpt: To ascertain whether a once daily, nucleoside-sparing regimen using a CCR5 antagonist could be safely and efficaciously administered to HIV-positive patients infected with CCR5-tropic HIV, a randomized, controlled study is being conducted.

CCR5 tropic HIV-1 virus = details: maraviroc 300 mg QD arm, preliminary results; cited from earlier work
HIV-1 = details: 48 weeks; atazanavir 300 mg/ritonavir 100 mg QD with Truvada versus lopinavir/r; cited from earlier work

## N-{(1S)-3-[3-(3-isopropyl-5-methyl-4H-1,2,4-triazol-4-yl)-exo-8-azabicyclo[3.2.1]oct-8-yl]-1-phenylpropyl}-4, 4-difluorocyclohexanecarboxamide [maraviroc]
CCR5-tropic HIV; after 24 weeks
  increase in CD4+: 195 cells
CCR5-tropic HIV; week 24, HIV-1 RNA
  percentage of patients who achieved less than 50 copies/mL: 80%
  percentage of patients who achieved less than 400 copies/mL: 90%
CCR5 tropic HIV-1 virus
  non-inferiority versus the efavirenz arm: did not meet the regulatory prespecified criteria for non-inferiority

## COC(=O)N[C@H](C(=O)N[C@@H](Cc1ccccc1)[C@@H](O)CN(Cc1ccc(-c2ccccn2)cc1)NC(=O)[C@@H](NC(=O)OC)C(C)(C)C)C(C)(C)C [atazanavir]
HIV-1
  non-inferiority primary endpoint of undetectable viral load (HIV-1 RNA less than 50 copies/mL): met the non-inferiority primary endpoint
